Row | melting point | SMILES
1 | 148 °C | N#CC(=Cc1cccs1)c1nc2ccccc2s1
2 | 51.5 °C | Cc1cc(C)oc(=O)c1
3 | 167 to 170 °C | Clc1cccc2c(C#Cc3ccccc3)c3cccc(Cl)c3c(C#Cc3ccccc3)c12
4 | 150 to 152 °C | CC1(C)O[C@@H]2[C@H](O1)[C@@H]1C[C@H]2NC1=O
5 | 92 to 95 °C | CCN(CC)c1ccc(C=NN(c2ccccc2)c2ccccc2)cc1
6 | 164 °C | O=[N+]([O-])c1ccccc1/C(O)=C(/C(=N\O)c1ccccc1)c1ccccc1
7 | -61 °C | FC(F)(Br)CBr
8 | 187 °C | O=C(/C=C/c1ccccc1)NNc1ccccc1
9 | 31 °C | CN(C)S(=O)N(C)C
10 | 59 to 61 °C | CC(=O)c1csc([N+](=O)[O-])c1
11 | -50 °C | C=C(C)CO
12 | 159 °C | COc1ccc2c(c1)CCC1C2CCC2(C)C(O)C(O)CC12 (stereo not given)
13 | 209 to 210 °C | Cc1nc2scc(-c3ccccc3)c2c(=O)n1NC(=O)c1ccccc1Cl
14 | 48 to 49 °C | Cn1nc(-c2ccccc2)cc1CN
15 | -137 °C | CC/C=C\C(C)(C)C
16 | 160 °C | Cc1ccc(S(=O)(=O)NCCNS(=O)(=O)c2ccc(C)cc2)cc1
17 | 124 to 126 °C | Nc1ccc(Cn2cncn2)cc1
18 | 195 °C | N#CC12CC3CC(CC(C3)C1)C2
19 | 41 to 45 °C | OC1CCOc2ccccc21 (stereo not given)
20 | 55 to 59 °C | CC(=O)CS(=O)(=O)c1ccccc1
21 | 59 °C | Oc1ccc(SC(F)(F)F)cc1
22 | 110 °C | CC(=O)N1C(=O)[C@@](O)(c2coc3ccccc23)c2ccccc21
23 | 108 °C | COc1c(Cl)c(Cl)c(Cl)c(Cl)c1Cl
24 | 106 to 110 °C | CN(C)C(=S)SC(=S)N(C)C
25 | 127 to 128 °C | c1cc(-c2cnco2)ccn1

Row | melting point | SMILES
26 | 76 to 77 °C | C#Cc1ccc(-c2cnco2)cc1
27 | 178 °C | O=C(O)CN(CCO)CC(=O)O
28 | 104 °C | Nc1ncc(Br)cc1Br
29 | 123 °C | O=C(NCC(c1ccccc1)c1ccccc1)c1ccccc1
30 | 217 °C | CC1CC2C3CCC4=CC(=O)C=CC4(C)C3(F)C(O)CC2(C)C1C(=O)CO (stereo not given)
31 | 186 °C | COc1ccc(CC(N)=O)cc1
32 | 244 to 248 °C | CC(C)(C)c1ccc(-c2cc(N)c(C(N)=O)s2)cc1
33 | 205 °C | COc1ccccc1-c1nnc2n1NC(c1ccccc1O)S2 (stereo not given)
34 | 184 °C | Ic1cc(I)cc(I)c1
35 | 175 to 176 °C | CSC(S)=Nc1ccc(C)cc1
36 | 132 to 134 °C | Nc1ccc(Oc2ccc([N+](=O)[O-])cc2)cc1
37 | 94 °C | COc1ccc(C#N)c(OC)c1
38 | 196 °C | CN=C(NC)NCc1ccccc1
39 | 222 °C | O=C1OC(OC2OC(=O)c3ccccc32)c2ccccc21 (stereo not given)
40 | 107 °C | O=C(O)CCc1ccccc1
41 | 232 to 235 °C | O=C(CCl)N1CCc2c([nH]c3ccccc23)C1C(F)(F)F (stereo not given)
42 | 150 to 153 °C | O=C(O)c1ccc(Oc2cccnc2)o1
43 | 169 to 172 °C | CCOC(=O)c1c(NC(=S)Nc2ccc(Cl)cc2)sc2c1CCN(Cc1ccccc1)C2
44 | 250 °C | O=Nc1ccc2c(O)ccc(N=O)c2c1O
45 | 232 °C | Cc1nc(=O)c2ccccc2[nH]1
46 | 143 to 148 °C | Nc1ccnc(N)n1
47 | < 20 °C | Brc1ccc(Oc2ccc(Br)c(Br)c2)c(Br)c1
48 | 85 to 86 °C | O=S1(=O)CCN(Cc2ccccc2)CC1
49 | 87 °C | c1coc(C2CNCCN2)c1 (stereo not given)
50 | < 25 °C | C=CC(C)(CCC=C(C)C)OC(C)=O (stereo not given)

Row | melting point | SMILES
51 | 88 to 90 °C | Cc1nc(-c2ccc(S(=O)(=O)Cl)s2)cs1
52 | 83 °C | O=C1CC(c2ccccc2)Cc2ccncc21 (stereo not given)
53 | 75 to 76 °C | CCOC(=O)/C(=N\Nc1ccc(Cl)cc1)C(=O)C(F)(F)F
54 | 93.5 °C | CC=CCC=CCCC(=O)C1OC1C(N)=O (stereo not given)
55 | 246 to 253 °C | O=C(O)C1CCCNC1 (stereo not given)
56 | 278 to 280 °C | Cc1cc(=O)oc2cc(O)c(Cl)cc12
57 | 163 to 164 °C | CCC1C(C=NO)=NC(C)(C)N1O (stereo not given)
58 | 10 °C | Cc1nccc2ccccc12
59 | 107 to 113 °C | c1cc(CCc2ccncc2)ccn1
60 | 96 to 98 °C | N#Cc1cc([N+](=O)[O-])ccc1-n1cccc1
61 | 157 °C | CC1CC(N(C)C)C(O)C(OC2C(C)CC(C)C(=O)C=CC(C)C(C(C)O)OC(=O)C2C)O1 (stereo not given)
62 | 51 to 55 °C | C[C@H](O)C(N)=O
63 | 25 °C | COC(=O)CC(=O)c1ccccc1Cl
64 | 149 °C | CC/C(CCCc1ccccc1)=N\NC(N)=O
65 | 116 to 118 °C | COc1ccc(C(C)=O)cc1CCl
66 | 130 to 137 °C | Cc1ccc(-n2c(=O)cc(C)n2C)cc1
67 | 143 °C | O=C(O)c1cc(F)cc(Br)c1
68 | 52 to 54 °C | C(=NCCN=Cc1ccccc1)c1ccccc1
69 | 89 °C | N#Cc1nccc2ccccc12
70 | 150 °C | Cc1cccc(NC(=O)c2ccccc2C(=O)O)c1
71 | 161 to 163 °C | Cc1csc2nc3ccccc3n12
72 | 53 to 54 °C | O=Cc1ccc2sccc2c1
73 | 104 to 105 °C | C/C(CCc1oc2ccccc2c1-c1ccc(C)o1)=N/O
74 | 190 °C | Cc1onc(-c2ccccc2Cl)c1C(=O)O
75 | 177 °C | Cc1c2cccc(-c3ccccc3)c2cc2c(-c3ccccc3)cccc12

Row | melting point | SMILES
76 | 303 to 305 °C | COc1ccccc1/N=N/c1c(N)nn2c(-c3ccccc3)cc(=O)[nH]c12
77 | 186 °C | Cc1nc2cc(O)ccc2s1
78 | 36 °C | COc1cccc(-c2cccc(OC)c2)c1
79 | 106 to 107 °C | O=C(Cl)c1cc2cc(Br)ccc2o1
80 | 155 °C | Clc1ccc(C=NC2Nc3ccccc3N2)cc1
81 | 39 to 42 °C | N#CSCc1c(Cl)cccc1Cl
82 | 251 °C | N[C@H](Cc1ccc(I)cc1)C(=O)O
83 | 118 to 119 °C | O=C(O)c1cccc(COc2ccccc2)c1
84 | 99 to 100 °C | O=C(/C=C/OC(=O)c1ccccc1)CCc1ccccc1
85 | < 25 °C | C=CC(C)(O)CCC=C(C)C (stereo not given)
86 | 103 to 106 °C | COc1ccc(-c2ccc(S(=O)(=O)Cl)cc2)cc1
87 | 197 °C | Cc1ccc(C(N)=O)cn1
88 | 104 to 109 °C | CC(C(C)P(c1ccccc1)c1ccccc1)P(c1ccccc1)c1ccccc1 (stereo not given)
89 | 40 to 45 °C | c1ccc2c(c1)OCCOCCOCCOCCOCCO2
90 | 77 °C | CC(=O)n1nc(C(F)(F)F)cc1-c1ccccc1
91 | 218 to 222 °C | O=C(O)C=Cc1cc([N+](=O)[O-])ccc1Cl
92 | 243 to 244 °C | Nc1nnc(S)s1
93 | 94 °C | O=C=Nc1cc([N+](=O)[O-])ccc1Cl
94 | 182 °C | CN(C)c1ccc(C2(c3ccc(N(C)C)cc3)OC(=O)c3cc(N(C)C)ccc32)cc1
95 | -100 °C | C=CC(C)O (stereo not given)
96 | 189 to 192 °C | O=S(=O)(O)CC(O)CN(CCO)CCO (stereo not given)
97 | 228 to 230 °C | C/C(=N/NC(N)=S)C(=O)Nc1ccc(Br)cc1
98 | 190 °C | CC1(C)C2CCC1(C)C(/N=C(\C(=O)c1ccccc1)c1ccccc1)C2/N=C(\C(=O)c1ccccc1)c1ccccc1 (stereo not given)
99 | 168 °C | COc1ccc(S(N)(=O)=O)c(OC)c1
100 | 49 °C | O=Cc1cnc(N2CCCCC2)s1

Row | melting point | SMILES
101 | 53 °C | CC1CCC(C(C)C)C(OC(=O)C(c2ccccc2)c2ccccc2)C1 (stereo not given)
102 | 103 to 104 °C | N#Cc1ccc(Cn2ccnc2)cc1
103 | 146 °C | O=c1n(-c2ccccc2)c(=O)n2n1C1OC3c4ccccc4C1C32 (stereo not given)
104 | 137 °C | CC(NC(=O)C(C(F)(F)F)C(F)(F)F)c1ccccc1 (stereo not given)
105 | 77 to 78 °C | O=C(Cl)c1cc(-c2cccs2)on1
106 | 266 °C | O=C1OC(c2ccccc2)=N/C1=C/c1cc(/C=C2/N=C(c3ccccc3)OC2=O)c([N+](=O)[O-])cc1[N+](=O)[O-]
107 | 140 to 143 °C | O=C(O)c1coc2c1C(=O)CCC2
108 | 220 to 222 °C | CC(C)(C)CC(=O)C=C1Nc2ccccc2NC1=CC(=O)CC(C)(C)C
109 | 77 °C | CC(O)CCc1ccc2c(c1)N(C(=O)c1ccccc1)C(C)CC2 (stereo not given)
110 | 133 °C | COc1ccc(/C=C2\SC(=S)N(CN3CCOCC3)C2=O)cc1
111 | 124 °C | COc1ccc(C(=O)C2=NOC3C(=O)N(c4ccc(Br)cc4)C(=O)C23)cc1 (stereo not given)
112 | 300 °C | Sc1nc2cc3c(cc2[nH]1)OCCO3
113 | 118 to 120 °C | COC1=C(OC)/C(=C/C2CCC=CC23OC(=O)C(OC)=C3OC)OC1=O (stereo not given)
114 | 41 to 43 °C | Cc1cc(N)n[nH]1
115 | 96 °C | CC(C)c1cc(C(C)C)c(S(=O)(=O)Cl)c(C(C)C)c1
116 | 105 °C | CCOC(=O)C1=C2c3ncccc3ON2C(Cl)C(Cl)C1Cl (stereo not given)
117 | 316 to 318 °C | Cc1cccc2c1CC(C(=O)O)NC2 (racemic)
118 | 75 °C | CC1CCC(C(C)C)C(OC(=O)c2ccc(C(=O)OC3CC(C)CCC3C(C)C)cc2)C1 (stereo not given)
119 | 107 to 111 °C | COc1ccc2c(c1)C(=O)CC2
120 | 92 to 96 °C | CC(C)(C)OC(=O)N[C@@H](Cc1ccccc1F)C(=O)O
121 | 74 to 76 °C | COc1cc(Cl)nc(OC)n1

Row | SMILES | melting point
122 | CC(=O)N=C1C=CC(=O)C=C1 | 74.5 °C
123 | Nc1c(Br)cc(Br)c2c1C(=O)c1ccccc1C2=O | 227 °C
124 | O=[N+]([O-])c1ccc(I)c([N+](=O)[O-])c1 | 89 °C
125 | C1OC1C1CO1 (stereo not given) | 4 °C
126 | C[C@]12CCC(=O)C=C1C(=O)C[C@@H]1[C@@H]2CC[C@]2(C)C(=O)CC[C@@H]12 | 222 °C
127 | CC12CCC3C(CC=C4CC(O)CCC43C)C1CCC2=O (single isomer, unassigned; (+)) | 146 to 151 °C
128 | C=C1CCC2(O)C3Cc4ccc(O)c5c4C2(CCN3CC2CC2)C1O5 (stereo not given) | 189 °C
129 | O=C(O)C(Cl)CCl (stereo not given) | 50 °C
130 | Brc1cccc2c1Oc1ccccc1O2 | 104 °C
